Key:
[1] = 101.3 kPa, Liquid
[2] = xn = mol fraction of the nth substance listed; settings: 101.3 kPa, Liquid

CC(C)(C)Cl [2-chloro-2-methylpropane]
[1], 298.15 K
Settings	kinematic viscosity [m2/s]	mass density [kg/m3]
–	5.66e-07	835.75

CCC(C)O (configuration not stated) [butan-2-ol]
[1]
Settings	kinematic viscosity [m2/s]	mass density [kg/m3]
298.15 K	3.73e-06	802.25
313.15 K	2.24e-06	789.44

CC(C)CO [2-methyl-1-propanol] + CC1CCCO1
[2], x1 = 1
Settings	kinematic viscosity [m2/s]	mass density [kg/m3]
298.15 K	4.25e-06	797.71
313.15 K	2.74e-06	785.89

CCC(C)Cl (configuration not stated) [2-chlorobutane]
[1]
Settings	kinematic viscosity [m2/s]	mass density [kg/m3]
298.15 K	4.54e-07	867.31
313.15 K	3.97e-07	850.23

CC1CCCO1 (configuration not stated) [2-methyltetrahydrofuran] + CC(C)(C)Cl
[2], 298.15 K, x2 = 0
Settings	kinematic viscosity [m2/s]	mass density [kg/m3]
–	5.59e-07	849.28

CCC(C)Cl (configuration not stated) [2-chlorobutane] + CC1CCCO1
[2]
Settings	kinematic viscosity, 298.15 K [m2/s]	kinematic viscosity, 313.15 K [m2/s]	mass density, 298.15 K [kg/m3]	mass density, 313.15 K [kg/m3]
x1 = 0.035	5.55e-07	4.88e-07	850.14	834.84
x1 = 0.0835	5.49e-07	4.83e-07	851.29	835.54
x1 = 0.1742	5.38e-07	4.74e-07	853.4	837.42
x1 = 0.2553	5.29e-07	4.65e-07	854.9	839.1
x1 = 0.3568	5.17e-07	4.56e-07	857.12	840.87
x1 = 0.4555	5.05e-07	4.46e-07	858.75	842.26
x1 = 0.5396	4.96e-07	4.38e-07	860.37	843.91
x1 = 0.697	4.81e-07	4.24e-07	863.09	846.32
x1 = 0.797	4.71e-07	4.15e-07	864.45	847.77
x1 = 0.8975	4.63e-07	4.06e-07	866.03	848.87
x1 = 0.9487	4.58e-07	4.01e-07	866.65	849.41
x1 = 1	4.54e-07	3.97e-07	867.31	850.23

CC1CCCO1 (configuration not stated) [2-methyltetrahydrofuran] + CCCCCl
[2]
Settings	kinematic viscosity, 298.15 K [m2/s]	kinematic viscosity, 313.15 K [m2/s]	mass density, 298.15 K [kg/m3]	mass density, 313.15 K [kg/m3]
x2 = 0	5.59e-07	4.92e-07	849.28	834.01
x2 = 0.0494	5.56e-07	4.88e-07	850.97	835.48
x2 = 0.1008	5.52e-07	4.85e-07	852.97	837.19
x2 = 0.203	5.43e-07	4.78e-07	856.41	840.52
x2 = 0.3004	5.35e-07	4.71e-07	859.76	843.74
x2 = 0.3963	5.27e-07	4.64e-07	862.73	846.73
x2 = 0.4969	5.18e-07	4.56e-07	865.86	849.69
x2 = 0.5976	5.09e-07	4.49e-07	869.09	852.75
x2 = 0.6993	5.01e-07	4.41e-07	872.11	855.69
x2 = 0.7993	4.93e-07	4.34e-07	874.9	858.36
x2 = 0.8988	4.85e-07	4.27e-07	878.01	861.05
x2 = 0.9483	4.82e-07	4.24e-07	879.23	862.56

— the NIST ThermoML archive (doi:10.1021/je030167i)
